# Experimental data as given in article PMC10052868 (European journal of medicinal chemistry, 2022).
# Entries after “also recorded” stand apart in the source; their conditions may differ. Counter-ions that a name gives are not always drawn.
# Legend:
# PfPK6 = PfPK6 (Plasmodium falciparum, UniProt Q8IDW1); assay: KinaseSeeker split-luciferase assay on PfPK6; assay type: binding, P. falciparum; conditions: for remaining activity at 1 µM: read-out: PfPK6 activity remaining at 1 μM (%)
# P. falciparum 3D7 = assay: P. falciparum asexual blood stage viability assay; assay type: cell-based; conditions: for Pf3D7 blood stage activity at single concentration: Inactive = no inhibition when tested in triplicate at a single concentration of 1 μM; for fold improvement in P. falciparum blood stage potency on adding CF3 or OCF3: compared to parent compound without meta group (64, 66, 67 or 68)
# PfCDPK5 = PfCDPK5 (Plasmodium falciparum, UniProt A0A5K1K8H0); assay: KinaseSeeker assay on PfCDPK5; assay type: binding, P. falciparum
# Chain of PfCDPK5 (A0A5K1K8H0 whole entry): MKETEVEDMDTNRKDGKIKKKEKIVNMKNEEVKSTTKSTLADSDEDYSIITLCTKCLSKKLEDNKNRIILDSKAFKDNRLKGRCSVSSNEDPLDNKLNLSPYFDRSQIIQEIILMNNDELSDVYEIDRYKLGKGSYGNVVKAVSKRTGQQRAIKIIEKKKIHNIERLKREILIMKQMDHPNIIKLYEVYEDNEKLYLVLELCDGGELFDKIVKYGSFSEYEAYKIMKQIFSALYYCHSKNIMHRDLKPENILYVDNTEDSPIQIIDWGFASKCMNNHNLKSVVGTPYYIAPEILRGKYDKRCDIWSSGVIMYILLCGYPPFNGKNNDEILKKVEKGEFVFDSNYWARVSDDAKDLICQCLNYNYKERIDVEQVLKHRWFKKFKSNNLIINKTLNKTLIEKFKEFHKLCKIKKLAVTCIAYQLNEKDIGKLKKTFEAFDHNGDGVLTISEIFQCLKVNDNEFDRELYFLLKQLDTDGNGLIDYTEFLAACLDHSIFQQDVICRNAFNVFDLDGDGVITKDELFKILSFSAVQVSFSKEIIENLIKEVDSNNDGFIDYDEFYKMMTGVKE
# PfGSK3 = PfGSK3 (Plasmodium falciparum, UniProt O77344); assay: KinaseSeeker assay on PfGSK3; assay type: binding, P. falciparum
# PfNEK3 = target: T1, PfNEK3 (Plasmodium falciparum, UniProt Q8I629); assay: KinaseSeeker assay on PfNEK3; assay type: binding, P. falciparum
# T1 sequence (Q8I629 1-347): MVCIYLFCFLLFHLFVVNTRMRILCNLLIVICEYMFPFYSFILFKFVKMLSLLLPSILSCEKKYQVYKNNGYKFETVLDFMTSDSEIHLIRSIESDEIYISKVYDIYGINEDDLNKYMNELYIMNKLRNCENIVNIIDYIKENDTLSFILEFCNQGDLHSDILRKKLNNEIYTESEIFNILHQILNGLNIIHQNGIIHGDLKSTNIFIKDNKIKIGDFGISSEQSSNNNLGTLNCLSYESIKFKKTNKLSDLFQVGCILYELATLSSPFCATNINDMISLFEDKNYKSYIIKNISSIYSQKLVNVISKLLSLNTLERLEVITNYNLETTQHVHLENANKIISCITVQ
# PfPKB = PfPKB (Plasmodium falciparum, UniProt Q8I4W3); assay: KinaseSeeker assay on PfPKB; assay type: binding, P. falciparum
# [1] = test system: panel of 468 kinases (403 non-mutant kinases); assay type: binding, human; conditions: for number of non-mutant kinases inhibited with ≤1% control: 1 μM, out of 403 non-mutant kinases
# P. berghei ANKA = assay: P. berghei liver stage parasite load assay in HepG2 cells; assay type: cell-based; conditions: for P. berghei liver stage activity in words: inactive = EC50 not reported because <5-fold difference between observed EC50 and HepG2 CellTiter-Fluor cytotoxicity
# PfARK3 = assay: KinaseSeeker assay on PfARK3; assay type: binding, P. falciparum; conditions: duplicate
# PfNEK1 = assay: KinaseSeeker assay on PfNEK1; assay type: binding, P. falciparum; conditions: duplicate
# [2] = GE = −ΔΔG / Δ(no. of heavy atoms), PfPK6 inhibition
smiles,measurement,setting,value
"COc1cc2nccc(Oc3ccc(NC(=O)Nc4cc(C(F)(F)F)ccc4F)c(F)c3)c2cc1OC [Compound 40, 1-(4-((6,7-dimethoxyquinolin-4-yl)oxy)-2-fluorophenyl)-3-(2-fluoro-5-(trifluoromethyl)phenyl)urea]",IC50,PfPK6,< 5 nM
same,Pf3D7 blood stage activity in dose-response,"P. falciparum 3D7; Inactive = no inhibition when tested up to 5 μM in two experiments, dose-response",Inactive^d
"COc1cc2nccc(Oc3ccc(NC(=O)Nc4cccc(CN5CCN(C)CC5)c4)c(F)c3)c2cc1OC [Compound 42, 1-(4-((6,7-dimethoxyquinolin-4-yl)oxy)-2-fluorophenyl)-3-(3-((4-methylpiperazin-1-yl)methyl)phenyl)urea diformate]",Pf3D7 blood stage activity at single concentration,P. falciparum 3D7,loss of P. falciparum blood stage activity; also recorded: Inactive^e
"COc1cc2nccc(Oc3ccc(NC(=O)Nc4ccc(C(=O)N5CCN(C)CC5)cc4)c(F)c3)c2cc1OC [Compound 43, 1-(4-((6,7-dimethoxyquinolin-4-yl)oxy)-2-fluorophenyl)-3-(4-(4-methylpiperazine-1-carbonyl)phenyl)urea]",Pf3D7 blood stage activity at single concentration,P. falciparum 3D7,did not observe antiplasmodial activity; also recorded: Inactive^e
"COc1cc2nccc(Oc3ccc(NC(=O)Nc4cccc(C(=O)N5CCN(C)CC5)c4)c(F)c3)c2cc1OC [Compound 44, 1-(4-((6,7-dimethoxyquinolin-4-yl)oxy)-2-fluorophenyl)-3-(3-(4-methylpiperazine-1-carbonyl)phenyl)urea]",Pf3D7 blood stage activity at single concentration,P. falciparum 3D7,did not observe antiplasmodial activity; also recorded: Inactive^e
"COc1cc2nccc(Oc3ccc(NC(=O)Nc4ccc(CN5CCN(C)CC5)c(C(F)(F)F)c4)c(F)c3)c2cc1OC [Compound 45, 1-(4-((6,7-dimethoxyquinolin-4-yl)oxy)-2-fluorophenyl)-3-(4-((4-methylpiperazin-1-yl)methyl)-3-(trifluoromethyl)phenyl)urea diformate]",IC50,PfCDPK5,40 to 144 nM
same,IC50,PfGSK3,40 to 144 nM
same,IC50,PfNEK3,40 to 144 nM
same,IC50,PfPKB,40 to 144 nM
same,number of non-mutant kinases inhibited with ≤1% control,[1],134
"COc1cc2nccc(Oc3ccc(NC(=O)Nc4ccc(C(=O)N5CCN(C)CC5)c(C(F)(F)F)c4)c(F)c3)c2cc1OC [Compound 47, 1-(4-((6,7-dimethoxyquinolin-4-yl)oxy)-2-fluorophenyl)-3-(4-(4-methylpiperazine-1-carbonyl)-3-(trifluoromethyl)phenyl)urea]",Pf3D7 blood stage activity at single concentration,P. falciparum 3D7,Inactive^e
"COc1cc2nccc(Oc3ccc(NC(=O)Nc4cc(C(=O)N5CCN(C)CC5)cc(C(F)(F)F)c4)c(F)c3)c2cc1OC [Compound 48, 1-(4-((6,7-dimethoxyquinolin-4-yl)oxy)-2-fluorophenyl)-3-(3-(4-methylpiperazine-1-carbonyl)-5-(trifluoromethyl)phenyl)urea formate]",Pf3D7 blood stage activity at single concentration,P. falciparum 3D7,Inactive^e
"COc1cc2nccc(Oc3ccc(NC(=O)Nc4cccc(Br)c4)c(F)c3)c2cc1OC [Compound 50, 1-(3-bromophenyl)-3-(4-((6,7-dimethoxyquinolin-4-yl)oxy)-2-fluorophenyl)urea]",Pf3D7 blood stage activity at single concentration,P. falciparum 3D7,Inactive^d
"COc1cc2nccc(Oc3ccc(NC(=O)Nc4cccc(C(C)C)c4)c(F)c3)c2cc1OC [Compound 52, 1-(4-((6,7-dimethoxyquinolin-4-yl)oxy)-2-fluorophenyl)-3-(3-isopropylphenyl)urea]",Pf3D7 blood stage activity at single concentration,P. falciparum 3D7,Inactive^d
"COc1cccc(NC(=O)Nc2ccc(Oc3ccnc4cc(OC)c(OC)cc34)cc2F)c1 [Compound 54, 1-(4-((6,7-dimethoxyquinolin-4-yl)oxy)-2-fluorophenyl)-3-(3-methoxyphenyl)urea]",Pf3D7 blood stage activity at single concentration,P. falciparum 3D7,Inactive^d
"COc1cc2nccc(Oc3ccc(NC(=O)Nc4cccc(OC(C)C)c4)c(F)c3)c2cc1OC [Compound 55, 1-(4-((6,7-dimethoxyquinolin-4-yl)oxy)-2-fluorophenyl)-3-(3-isopropoxyphenyl)urea]",Pf3D7 blood stage activity at single concentration,P. falciparum 3D7,Inactive^d
"COc1cc2nccc(Oc3ccc(NC(=O)Nc4cccc(OC(F)F)c4)c(F)c3)c2cc1OC [Compound 56, 1-(3-(difluoromethoxy)phenyl)-3-(4-((6,7-dimethoxyquinolin-4-yl)oxy)-2-fluorophenyl)urea]",Pf3D7 blood stage activity at single concentration,P. falciparum 3D7,Inactive^d
"COc1cc2nccc(Oc3ccc(NC(=O)Nc4cccc(C#N)c4)c(F)c3)c2cc1OC [Compound 58, 1-(3-cyanophenyl)-3-(4-((6,7-dimethoxyquinolin-4-yl)oxy)-2-fluorophenyl)urea]",Pf3D7 blood stage activity at single concentration,P. falciparum 3D7,Inactive^d
"COc1cc2nccc(Oc3ccc(NC(=O)Nc4ccc(CN5CCOCC5)cc4)c(F)c3)c2cc1OC [Compound 60, 1-(4-((6,7-dimethoxyquinolin-4-yl)oxy)-2-fluorophenyl)-3-(4-(morpholinomethyl)phenyl)urea]",Pf3D7 blood stage activity at single concentration,P. falciparum 3D7,Inactive^c
"COc1cc2nccc(Oc3ccc(NC(=O)Nc4ccc(CC5CCNCC5)cc4)c(F)c3)c2cc1OC [Compound 67, 1-(4-((6,7-dimethoxyquinolin-4-yl)oxy)-2-fluorophenyl)-3-(4-(piperidin-4-ylmethyl)phenyl)urea]",remaining activity at 1 µM,PfPK6,2%
same,P. berghei liver stage activity in words,P. berghei ANKA,inactive^g
same,PfARK3 % Activity remaining at 1 μM,PfARK3,100%
same,PfNEK1 % Activity remaining at 1 μM,PfNEK1,100%
same,number of non-mutant kinases inhibited with ≤1% control,[1],22
"COc1cc2nccc(Oc3ccc(NC(=O)Nc4ccc(OC5CCN(C)CC5)c(C(F)(F)F)c4)c(F)c3)c2cc1OC [Compound 75, 1-(4-((6,7-dimethoxyquinolin-4-yl)oxy)-2-fluorophenyl)-3-(4-((1-methylpiperidin-4-yl)oxy)-3-(trifluoromethyl)phenyl)urea]",remaining activity at 1 µM,PfPK6,0%
same,fold improvement in P. falciparum blood stage potency on adding CF3 or OCF3,P. falciparum 3D7,8 fold
same,fold difference between P. berghei EC50 and CellTiter-Fluor CC50,P. berghei ANKA; HepG2 host cells,1.9 fold
same,P. berghei liver stage activity in words,P. berghei ANKA,inactive^g
same,PfNEK1 % Activity remaining at 1 μM,PfNEK1,100%
"COc1cc2nccc(Oc3ccc(NC(=O)Nc4ccc(OC5CCN(C)CC5)c(OC(F)(F)F)c4)c(F)c3)c2cc1OC [Compound 76, 1-(4-((6,7-dimethoxyquinolin-4-yl)oxy)-2-fluorophenyl)-3-(4-((1-methylpiperidin-4-yl)oxy)-3-(trifluoromethoxy)phenyl)urea]",fold improvement in P. falciparum blood stage potency on adding CF3 or OCF3,P. falciparum 3D7,4 fold
"COc1cc2nccc(Oc3ccc(NC(=O)Nc4ccc(N(C)C5CCN(C)CC5)c(C(F)(F)F)c4)c(F)c3)c2cc1OC [Compound 77, 1-(4-((6,7-dimethoxyquinolin-4-yl)oxy)-2-fluorophenyl)-3-(4-(methyl(1-methylpiperidin-4-yl)amino)-3-(trifluoromethyl)phenyl)urea]",fold improvement in P. falciparum blood stage potency on adding CF3 or OCF3,P. falciparum 3D7,2 fold
"COc1cc2nccc(Oc3ccc(NC(=O)Nc4ccc(CC5CCNCC5)c(OC(F)(F)F)c4)c(F)c3)c2cc1OC [Compound 80, 1-(4-((6,7-dimethoxyquinolin-4-yl)oxy)-2-fluorophenyl)-3-(4-(piperidin-4-ylmethyl)-3-(trifluoromethoxy)phenyl)urea]",fold improvement in P. falciparum blood stage potency on adding CF3 or OCF3,P. falciparum 3D7,2 fold
"COc1cc2nccc(Oc3ccc(NC(=O)Nc4ccc(C=C5CCNCC5)c(C(F)(F)F)c4)c(F)c3)c2cc1OC [Compound 81, 1-(4-((6,7-dimethoxyquinolin-4-yl)oxy)-2-fluorophenyl)-3-(4-(piperidin-4-ylidenemethyl)-3-(trifluoromethyl)phenyl)urea]",fold improvement in P. falciparum blood stage potency on adding CF3 or OCF3,P. falciparum 3D7,2 fold
"COc1cc2nccc(Oc3ccc(NC(=O)Nc4ccc(C=C5CCNCC5)c(OC(F)(F)F)c4)c(F)c3)c2cc1OC [Compound 82, 1-(4-((6,7-dimethoxyquinolin-4-yl)oxy)-2-fluorophenyl)-3-(4-(piperidin-4-ylidenemethyl)-3-(trifluoromethoxy)phenyl)urea]",fold improvement in P. falciparum blood stage potency on adding CF3 or OCF3,P. falciparum 3D7,2 fold
"COc1cc2nccc(Oc3ccc(NC(=O)Nc4ccc(F)cc4F)c(F)c3)c2cc1OC [Ki8751, reference compound]",group efficiency (GE) of the 7-methoxy group,PfPK6; [2],0.81 ± 0.04
same,group efficiency (GE) of the entire urea group,PfPK6; [2],0.39 ± 0.02
same,group efficiency (GE) of the tail phenyl ring,PfPK6; [2],> 0.41 ± 0.005
same,number of non-mutant kinases inhibited with ≤1% control,[1],16
same,selectivity score S1 (1 μM),"[1]; KINOMEscan, 403 non-mutant kinases",0.040
